Assay type in all cases: in vivo
Experiment [1] relates to Luciferase-containing B16 melanoma cells. The experiment in a line: B16 melanoma tumor growth in mice (bioluminescence imaging, tumor volume). Here is the method:
In the melanoma model, age- and sex-matched VAP-1 deficient and wt C57/B16 mice were used (Stolen, C. M., F. Marttila-Ichihara, K. Koskinen, G. G. Yegutkin, R. Turja, P. Bono, M. Skurnik, A. Hanninen, S. Jalkanen, and M. Salmi. 2005. Immunity 22:105-115). Luciferase-containing B16 melanoma cells were purchased from Xenogen. Tumor cells (4×10^5 in 200 μl) were injected subcutaneously into the flanks of isoflurane anesthesized mice. Immediately thereafter, a substrate for the luciferase (D-luciferin sodium salt, Synchem, Kassel, Germany; 150 mg/kg i.p.) was injected, and 10 min later the light generated was recorded using bioluminescence imaging (IVIS 50 workstation, Xenogen). The signal intensities were quantified as the photon counts using the Living Image software (Xenogen). […] The growth of tumors was then followed for 10 d, and at the indicated time points, the animals were re-subjected to the bioluminescence imaging. The diameter of the tumor was also measured using an electronic caliber (Mitutoyo, Japan). The volume of the tumor was approximated using the formula: 0.5×(longest diameter)×(shortest diameter). In the lymphoma model, EL-4 cells were injected into the abdominal area (10×10^6 cells/mouse in 200 μl of RPMI1640. tumor growth was followed using the electronic caliber.
(§1) The tumor model was established as above. The animals were treated every second day with anti-VAP-1 mAb (7-106+7-88, 100 μg each/mouse) or with a negative control mAb HB151 (200 μg/mouse, ip) (Merinen, M., H. Irjala, M. Salmi, I. Jaakkola, A. Hanninen, and S. Jalkanen. 2005. e. Am. J. Pathol. 166:793-800). The antibodies were produced in serum and BSA-free medium, concentrated, and dialyzed against PBS. Another group of mice were treated with the VAP-1 inhibitor SZE 5302 (50 mg/kg, ip, daily) or with the vehicle (saline) (Koskinen, K., P. J. Vainio, D. J. Smith, M. Pihlavisto, S. Yla-Herttuala, S. Jalkanen, and M. Salmi. 2004. Blood 103:3388-3395). The growth of the tumor was then followed using bioluminescence imaging or volume measurements as described above.

For experiment [2], the system named is CD31-positive vessels in melanoma tumors. As to the kind of experiment: CD31-positive vessels in melanoma tumors (immunohistochemistry, neoangiogenesis). Particulars: melanoma tumors resected d10, treated vs control mice, FIG. 3. As for the experimental part: as §1
At the end of the experiment, tumors were excised from the mice and processed for immunohistochemical staining. Anti-mouse CD31 mAb (MEC13.3, IHC formula, 1:300 dilution; Pharmingen) and a negative control mAb (9B5) were used for indirect immunoperoxidase stainings. The sections were counterstained with hematoxylin-eosin, and mounted in Depex. In certain cases, formalin-fixed, paraffin embedded sections were stained with HE. The CD31-positive vessels or vessels in HE-stained sections were enumerated by counting the number of vessels in the whole tumor area using a 400× magnification. […]

The test system of experiment [3] is myeloid-derived suppressor cells (MDSC) in melanoma tumors. The experiment in a line: CD11b-positive myeloid-derived suppressor cells in melanoma tumors (microscopic counting). The settings on record: wt mice treated with inhibitor vs vehicle, FIG. 6. An excerpt: FIG. 6. VAP-1 selectively supports recruitment of pro-angiogenic myeloid-derived suppressor cells in melanoma tumors. CD11b-positive cells were quantified by microscopic counting in wt and VAP-1 deficient mice and in wt treated with vehicle or SZE5302 inhibitor. Data (mean±SEM) are from 9 mice per group, ** p<0.01.
At the end of the experiment, tumors were excised from the mice and processed for immunohistochemical staining. Anti-mouse CD31 mAb (MEC13.3, IHC formula, 1:300 dilution; Pharmingen) and a negative control mAb (9B5) were used for indirect immunoperoxidase stainings. The sections were counterstained with hematoxylin-eosin, and mounted in Depex. In certain cases, formalin-fixed, paraffin embedded sections were stained with HE. The CD31-positive vessels or vessels in HE-stained sections were enumerated by counting the number of vessels in the whole tumor area using a 400× magnification. Sections were also stained with CD11b and Gr-1 antibodies.

The subject of a further experiment is EL-4 lymphoma cells. The experiment in a line: EL-4 lymphoma growth in mice (tumor volume). The settings on record: wt mice, s.c. EL-4 lymphoma, treated vs control, FIG. 5b. Here is the method:
FIG. 5. Defective migration of myeloid-derived suppressor cells (MDSC), angiogenesis and growth of lymphoma in VAP-1 deficient mice (a, b). EL-4 lymphoma cells were injected subcutaneously into (a) wt and VAP-1 deficient mice and (b) control and SZE5302 treated mice, and the growth of the lymphomas (volume) was measured kinetically. VAP-1 activity in control and SZE5302 treated mice was measured using enzyme assay (c) Immunohistochemical stainings of (d) VAP-1 and (e) CD31 expression in tumor vessels in EL-4 lymphoma grown in wt and VAP-1 −/− mice. Some positive vessels are pointed out by arrows. Lymphoma cells also express low levels of CD31. Bar 50 μm. The numbers of (f) CD31 positive vessels and (g) CD11b positive cells was determined using immunohistochemistry. […]
In the melanoma model, age- and sex-matched VAP-1 deficient and wt C57/B16 mice were used (Stolen, C. M., F. Marttila-Ichihara, K. Koskinen, G. G. Yegutkin, R. Turja, P. Bono, M. Skurnik, A. Hanninen, S. Jalkanen, and M. Salmi. 2005. Immunity 22:105-115). […] Immediately thereafter, a substrate for the luciferase (D-luciferin sodium salt, Synchem, Kassel, Germany; 150 mg/kg i.p.) was injected, and 10 min later the light generated was recorded using bioluminescence imaging (IVIS 50 workstation, Xenogen). The signal intensities were quantified as the photon counts using the Living Image software (Xenogen). […]

As for `CN(N)[C@H]1Cc2ccccc2[C@@H]1O` [SZE5302], in experiment [1] (day 7, wt mice, B16 melanoma, 50 mg/kg ip daily), the “tumor volume (physical measurement)” value was “significant reduction”. Also, in experiment [1] (day 10, wt mice, B16 melanoma, 50 mg/kg ip daily), the melanoma size result was “clearly smaller”. For the same compound, in experiment [1] (wt mice, s.c. B16 melanoma, 50 mg/kg ip daily vs vehicle, FIG. 2B), the tumor growth entry was “significant decrease in tumor growth”. The “number of CD31+ positive (new) vessels in the tumor” value in experiment [2] is listed as “significantly fewer”. Also, in experiment [3], the “number of MDSC in the melanomas” value is reported as “strongly reduced”. For the same compound, the “tumor growth (lymphoma volume)” value with EL-4 lymphoma cells is recorded as “strongly inhibited tumor growth”.
